Data on seven compounds can be found in US6596724B2, “Oxadiazole and thiadiazole derivatives of dihydropyridine NPY antagonists” (Bristol-Myers Squibb Company, priority 2000, dated 2003).

Series [1] concerns NPY-induced contractions in guinea pig basilar artery. The following applies: cited from earlier work.
Series [2] has as its target T1, I-125 Bolton-Hunter labeled NPY in human neuroblastoma cells (SK-N-MC) (Homo sapiens, UniProt P25929).
T1 construct: displaces I-125 Bolton-Hunter labeled NPY in human neuroblastoma cells (SK-N-MC); host or cells: SK-N-MC human neuroblastoma cells (endogenous receptor)
T1 sequence (P25929 1-384): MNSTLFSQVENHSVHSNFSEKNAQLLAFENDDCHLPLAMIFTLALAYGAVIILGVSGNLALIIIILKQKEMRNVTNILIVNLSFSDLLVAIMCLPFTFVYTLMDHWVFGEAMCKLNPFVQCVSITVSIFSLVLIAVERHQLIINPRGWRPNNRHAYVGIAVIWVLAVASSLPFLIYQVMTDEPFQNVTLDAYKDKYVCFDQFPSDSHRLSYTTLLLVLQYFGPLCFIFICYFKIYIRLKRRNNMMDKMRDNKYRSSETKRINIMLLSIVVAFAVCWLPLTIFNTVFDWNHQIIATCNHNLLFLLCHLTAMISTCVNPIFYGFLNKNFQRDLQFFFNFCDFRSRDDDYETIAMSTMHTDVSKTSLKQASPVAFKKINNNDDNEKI
As to conditions: cited from earlier work.

Series [3] has as its system NPY-induced increase in intracellular Ca++ in SK-N-MC cells. As to conditions: cited from earlier work.
Series [4] deals with NPY-induced pressor response. As to conditions: pithed rat; cited from earlier work.
Series [5] addresses T2, I-125 labeled NPY and PYY in human neuroblastoma cells (Homo sapiens, UniProt P25929).
T2 construct: displacing I-125 labeled NPY and PYY in human neuroblastoma cells
T2 sequence (P25929 1-384): T1 sequence (P25929 1-384)
The following applies: cited from earlier work.

In series [6] the test system is NPY-related increases in diastolic blood pressure. As to conditions: anesthetized guinea pig model; cited from earlier work.

Take `O=P(O)(O)OC1[C@H](OP(=O)(O)O)[C@H](O)C(O)[C@H](O)[C@H]1OP(=O)(O)O` (stereo partly drawn) [D-Myo-inositol-1,2,6-triphosphate]: the “antagonism of NPY-induced contractions” value in series [1] is “potent but non-competitive antagonist”. For `NC(N)=NCCC[C@@H](NC(=O)C(c1ccccc1)c1ccccc1)C(=O)NCc1ccc(O)cc1` [BIBP 3226], the “displacement of I-125 Bolton-Hunter labeled NPY” value in series [2] was “displaces”. Besides, in series [3], the “antagonism of NPY-induced increase in intracellular Ca++” value was “antagonized”. In series [4], the “antagonism of NPY-induced pressor response” value is reported as “antagonizing”. For orientation: melting point means the temperature, or range, at which the solid turns liquid. Regarding `COC(=O)C1=C(C)NC(C)=C(C(=O)OC)C1c1cccc(NC(=O)NNC(=O)CN2CCC(c3ccccc3)CC2)c1` [Example 18, 4-[3-[[[2-[(4-Phenyl-1-piperidinyl)acetyl]-hydrazino]-carbonyl]amino]phenyl]1,4-dihydro-2,6-dimethyl-3,5-pyridinedicarboxylic acid, dimethyl ester], the melting point was in the range of 138 to 143 °C. Compound `COC(=O)C1=C(C)NC(C)=C(C(=O)OC)C1c1cccc(NC(=S)NNC(=O)CN2CCC(c3ccccc3)CC2)c1` [Example 19, 4-[3-[[[2-[(4-Phenyl-1-piperidinyl)acetyl]-hydrazino]-carbonothioyl]amino]phenyl]1,4-dihydro-2,6-dimethyl-3,5-pyridinedicarboxylic acid, dimethyl ester] showed a melting point of 125 to 130 °C. Still for that read-out and setting: as for `COC(=O)C1=C(C)NC(C)=C(C(=O)OC)C1c1ccc(F)c(NC(=S)NNC(=O)CN2CCC(c3cccc(OC)c3)CC2)c1` [Example 22, 4-[4-Fluoro-3-[[[2-[[4-(3-methoxyphenyl)-1-piperidinyl]acetyl]-hydrazino]-carbonothioyl]amino]phenyl]1,4-dihydro-2,6-dimethyl-3,5-pyridinedicarboxylic acid, dimethyl ester], the figure is 114 to 120 °C.

With `CN(C)CC1CCC(CN=C(N)c2ccc(C[C@@H](NC(=O)[C@@H](Cc3ccccc3)NS(=O)(=O)c3ccc4ccccc4c3)C(=O)N3CCCC3)cc2)CC1` (stereo partly shown) [SR 120819A], the “displacement of I-125 labeled NPY and PYY” value in series [5] was “displacing”. In series [6], the “antagonism of NPY-related increases in diastolic blood pressure” value is reported as “antagonized”. Regarding `COC(=O)C1=C(C)NC(C)=C(C(=O)OC)C1c1cccc(NC(=S)NNC(=O)CN2CCC(c3cccc(OC)c3)CC2)c1` [Example 20, 4-[3-[[[2-[[4-(3-Methoxyphenyl)-1-piperidinyl)acetyl]-hydrazino]-carbonothioyl]amino]phenyl]1,4-dihydro-2,6-dimethyl-3,5-pyridinedicarboxylic acid, dimethyl ester], the melting point fell in the range of 113 to 116 °C.
